PMC8942522 (Journal of Enzyme Inhibition and Medicinal Chemistry, 2022)
Where “and” joins values, the source holds several entries; their conditions need not be identical. Equal entries are not always repeated. Where two headings read alike, the source gives them in different places. Blank lines part the entries; values can stand above or below the molecule they belong to.

Experiments:
[1] = test system: intracellular amastigotes of L. donovani; assay: Intracellular L. donovani in THP-1 cells; details: for selectivity index [SI vs. THP-1], L. donovani: CC50 THP-1 / EC50 L. donovani
TcTryS = target: T1, TcTryS (Trypanosoma cruzi, UniProt Q9GT49); assay: TryS inhibition assay; format: biochemical; details: for % TryS inhibition at 25 μM, T. cruzi: mean ± SD, NA = not active (inhibition ≤ 0.0 ± 5.0%); for IC50: IC50 T. cruzi TryS, 1 h pre-incubation, DRC, values italic and bold in Table 1
T1 sequence (Q9GT49 1-647): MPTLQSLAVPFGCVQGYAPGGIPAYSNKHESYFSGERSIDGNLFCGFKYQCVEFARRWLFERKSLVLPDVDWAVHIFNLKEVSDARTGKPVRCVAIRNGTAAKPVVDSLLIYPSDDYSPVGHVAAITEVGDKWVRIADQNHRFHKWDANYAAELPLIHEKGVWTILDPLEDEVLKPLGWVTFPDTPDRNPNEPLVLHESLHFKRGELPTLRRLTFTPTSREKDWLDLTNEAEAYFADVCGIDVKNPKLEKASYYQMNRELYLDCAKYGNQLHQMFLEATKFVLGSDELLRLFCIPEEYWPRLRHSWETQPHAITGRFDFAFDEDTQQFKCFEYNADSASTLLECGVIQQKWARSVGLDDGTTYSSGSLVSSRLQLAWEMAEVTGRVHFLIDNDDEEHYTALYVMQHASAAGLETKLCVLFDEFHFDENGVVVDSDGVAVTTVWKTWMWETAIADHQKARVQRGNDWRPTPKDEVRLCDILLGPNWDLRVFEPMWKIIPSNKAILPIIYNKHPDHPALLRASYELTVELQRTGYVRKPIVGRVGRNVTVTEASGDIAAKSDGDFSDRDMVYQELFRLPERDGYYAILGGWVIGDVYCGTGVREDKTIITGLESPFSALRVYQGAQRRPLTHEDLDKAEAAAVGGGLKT

LiTryS = target: T2, LiTryS (Leishmania infantum, UniProt A4I2Z3); assay: TryS inhibition assay; format: biochemical; details: mean ± SD, NA = not active (inhibition ≤ 0.0 ± 5.0%)
T2 sequence (A4I2Z3 1-652): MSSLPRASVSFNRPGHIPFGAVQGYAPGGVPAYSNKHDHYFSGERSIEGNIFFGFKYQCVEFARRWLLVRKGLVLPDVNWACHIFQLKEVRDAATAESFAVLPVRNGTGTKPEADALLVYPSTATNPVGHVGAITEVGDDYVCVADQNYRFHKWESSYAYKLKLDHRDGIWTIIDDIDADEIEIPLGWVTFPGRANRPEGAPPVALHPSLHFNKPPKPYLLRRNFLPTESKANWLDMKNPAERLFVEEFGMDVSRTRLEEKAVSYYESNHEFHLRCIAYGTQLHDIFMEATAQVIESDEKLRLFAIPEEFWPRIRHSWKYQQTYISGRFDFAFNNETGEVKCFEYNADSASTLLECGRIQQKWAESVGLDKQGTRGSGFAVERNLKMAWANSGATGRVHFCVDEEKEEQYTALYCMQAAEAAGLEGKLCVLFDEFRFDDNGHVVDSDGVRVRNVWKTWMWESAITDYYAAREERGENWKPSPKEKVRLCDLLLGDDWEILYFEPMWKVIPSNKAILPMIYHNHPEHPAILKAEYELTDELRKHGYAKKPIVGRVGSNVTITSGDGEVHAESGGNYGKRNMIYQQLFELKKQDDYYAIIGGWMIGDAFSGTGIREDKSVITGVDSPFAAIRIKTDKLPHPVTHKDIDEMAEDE

[2] = target: T3, TryS from Trypanosoma brucei (TbTryS) (Trypanosoma brucei brucei, UniProt Q586P2); assay: TryS inhibition assay; format: biochemical; details: mean ± SD, NA = not active (inhibition ≤ 0.0 ± 5.0%)
T3 sequence (Q586P2 1-627): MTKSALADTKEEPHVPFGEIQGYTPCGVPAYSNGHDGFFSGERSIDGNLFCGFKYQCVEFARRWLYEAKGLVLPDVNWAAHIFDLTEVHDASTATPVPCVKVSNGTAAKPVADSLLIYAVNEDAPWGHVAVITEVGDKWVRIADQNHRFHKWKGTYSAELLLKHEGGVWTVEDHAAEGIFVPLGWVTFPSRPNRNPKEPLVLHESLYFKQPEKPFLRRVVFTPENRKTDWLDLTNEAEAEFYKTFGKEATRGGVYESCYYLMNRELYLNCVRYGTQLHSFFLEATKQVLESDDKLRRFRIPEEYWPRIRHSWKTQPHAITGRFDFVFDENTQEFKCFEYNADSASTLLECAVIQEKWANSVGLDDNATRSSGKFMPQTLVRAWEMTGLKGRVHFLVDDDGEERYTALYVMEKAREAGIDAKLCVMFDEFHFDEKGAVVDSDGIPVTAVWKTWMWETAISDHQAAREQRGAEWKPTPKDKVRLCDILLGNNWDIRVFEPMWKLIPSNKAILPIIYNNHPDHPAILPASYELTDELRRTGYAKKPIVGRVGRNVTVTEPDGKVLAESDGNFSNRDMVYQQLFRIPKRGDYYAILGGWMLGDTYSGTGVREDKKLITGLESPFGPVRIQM

[3] = test system: intracellular amastigotes of T. cruzi; assay: Intracellular T. cruzi in U-2 OS cells; format: cell-based, T. cruzi (strain Y); details: for selectivity index [SI vs. THP-1], T. cruzi: CC50 THP-1 / EC50 T. cruzi; for selectivity index [SI vs. U-2 OS], T. cruzi: CC50 U-2 OS / EC50 T. cruzi; for EC50: read-out: Cytotoxicity EC50 T. cruzi, intracellular amastigotes in U-2 OS, 72 h
bloodstream T. brucei = assay: Cytotoxicity against bloodstream T. brucei; format: cell-based, T. brucei (strain 427, cell line 449); details: CC50 THP-1 / EC50 T. brucei
TbTryS [4] = assay: Dilution and reduction-based; format: biochemical, Trypanosoma brucei; details: Ebselen 10 µM 1 h, n = 6
TbTryS [5] = format: biochemical, Trypanosoma brucei; details: 1 h, n = 8; for TryS inhibition ± SD, mass spectrometry sample B: IAM 15 mM, no Ebselen
TbTryS [6] = assay: Time-dependent inhibition assay; format: biochemical, Trypanosoma brucei; details: n = 6
[7] = test system: redox biosensor hGrx1-roGFP2 in bloodstream T. b. brucei; assay: Redox assay with hGrx1-roGFP2 reporter cell line; format: cell-based, T. brucei brucei (strain 427, cell line 449)

- % TryS inhibition at 25 μM, T. cruzi (TcTryS): 25.9 ± 6.5%
- % TryS inhibition at 25 μM, L. infantum (LiTryS): 70.9 ± 6.8%
- % TryS inhibition at 25 μM, T. brucei [2]: 9.2 ± 7.4%
Structure (SMILES): CCCC[P+](CCCC)(CCCC)Cc1ccc(NC(=O)[C@H](Cc2ccc3ccccc3c2)NC(=NC2CCCCC2)NC2CCCCC2)cc1.Cl.[Cl-] [Compound 13, WIN 64338 hydrochloride]
- selectivity index [SI vs. THP-1], L. donovani [1]: 1.9

Structure (SMILES): NC(Cc1cc(O)c(O)cc1O)C(=O)O (racemic) [Compound 3, 6-Hydroxy-DL-DOPA]
- selectivity index [SI vs. THP-1], T. cruzi [3]: > 2.7
- selectivity index [SI vs. U-2 OS], T. cruzi [3]: 2.7
- EC50 [3]: 34 µM and ~34 µM

Structure (SMILES): O=c1c2ccccc2[se]n1-c1ccccc1 [Compound 5, Ebselen]
- selectivity index [SI vs. THP-1], T. brucei (bloodstream T. brucei): 11
- EC50 ([1]; Leishmania donovani, THP-1, 96 h, read-out: Cytotoxicity EC50 L. donovani): > 100 µM
- IC50 (TcTryS): 13.8 ± 1.5 µM
- TryS inhibition ± SD, irreversible inhibition assay, sample A (TbTryS [4]; buffer exchanged, DTT 5 mM 30 min): 89 ± 8.5%
- TryS inhibition ± SD, irreversible inhibition assay, sample B (TbTryS [4]; buffer exchanged, no DTT): 97.0 ± 5.0%
- TryS inhibition ± SD, irreversible inhibition assay, sample C (TbTryS [4]; no buffer exchange, no DTT): 100 ± 9%
- TryS inhibition ± SD, mass spectrometry sample A (TbTryS [5]; Ebselen 20 µM): 100 ± 7%
- TryS inhibition ± SD, mass spectrometry sample A (value in parenthesis) (TbTryS [5]; Ebselen 50 µM): 96 ± 8%
- selectivity index [SI vs. THP-1], T. cruzi [3]: > 36
- selectivity index [SI vs. U-2 OS], T. cruzi [3]: 2.4
- EC50 [3]: 2.8 ± 0.1 µM
- TryS inhibition ± SD, time-dependent assay, sample A (TbTryS [6]; Ebselen 5 µM pre-incubated 1 h with TbTryS, reaction started with MM): 43.6 ± 4.5%
- TryS inhibition ± SD, time-dependent assay, sample C (TbTryS [6]; Ebselen 5 µM, no pre-incubation): 1.8 ± 4.2%
- oxidation of the biosensor ([7]; 18 µM (2-fold its EC50), 4 h, reverted by DTT 1 mM 20 min): 48%

- % TryS inhibition at 25 μM, T. cruzi (TcTryS): 13.3 ± 3.3%
Structure (SMILES): CCN(CC)C(=O)COC(=O)c1c(NC(C)=O)sc2c1CCCC2 [Compound 19]
- selectivity index [SI vs. THP-1], T. brucei (bloodstream T. brucei): > 4

Structure (SMILES): O=C(Cn1ccnc1[N+](=O)[O-])NCc1ccccc1 [Benznidazole]
- EC100 ([3]; reference drug concentration used in T. cruzi assay): 400 µM

- inhibition at 25 µM (TcTryS; read-out: % TryS inhibition at 25 μM, T. cruzi): 5.5 ± 2.8%
Structure (SMILES): O=C(O)C1=CC(=C(c2ccc(O)c(C(=O)O)c2)c2ccc(O)c(C(=O)O)c2)C=CC1=O [Compound 1, Aurintricarboxylic acid]

Structure (SMILES): C[C@@H]1[C@H](O)[C@@H](C)/C=C/C=C/C=C/C=C/C=C/C=C/C=C/[C@H](O[C@@H]2O[C@H](C)[C@@H](O)[C@H](N)[C@@H]2O)C[C@@H]2O[C@](O)(C[C@@H](O)C[C@@H](O)[C@H](O)CC[C@@H](O)C[C@@H](O)CC(=O)O[C@H]1C)C[C@H](O)[C@H]2C(=O)O [Amphotericin B]
- selectivity index [SI vs. THP-1], L. donovani [1]: > 22

Structure (SMILES): NC(=O)CI [IAM, iodoacetamide]
- TryS inhibition ± SD, mass spectrometry sample B (TbTryS [5]): 20 ± 9%
- TryS inhibition ± SD, mass spectrometry sample B (TbTryS [5]; listed as iodoacetamide): negligible effects on TryS activity

- % TryS inhibition at 25 μM, T. cruzi (TcTryS): 10.9 ± 5.6%
- % TryS inhibition at 25 μM, L. infantum (LiTryS): 8.9 ± 5.9%
Structure (SMILES): N=C1Sc2ccccc2C2=NCCCN12 [Compound 9, PD 404,182]

Structure (SMILES): O=C(O)c1cc[c]([Hg][Cl])cc1 [Compound 2, 4-Chloromercuribenzoic acid]
- % TryS inhibition at 25 μM, T. cruzi (TcTryS): 32.0 ± 9.7%

- % TryS inhibition at 25 μM, T. cruzi (TcTryS): 7.1 ± 4.0%
- % TryS inhibition at 25 μM, L. infantum (LiTryS): 16.8 ± 17.9%
Structure (SMILES): O=C(CCc1c(-c2ccc(F)cc2)[nH]c2ccc(F)cc12)N1CCN(c2ccncc2)CC1 [Compound 14]
- selectivity index [SI vs. THP-1], T. brucei (bloodstream T. brucei): 11

- % TryS inhibition at 25 μM, T. cruzi (TcTryS): 34.7 ± 7.6%
- % TryS inhibition at 25 μM, T. brucei [2]: 14.4 ± 8.2%
Structure (SMILES): Cl.Nc1nc(NCC2CCC(CNS(=O)(=O)c3cccc4ccccc34)CC2)nc2ccccc12 (stereo not shown) [Compound 11, CGP 71683 hydrochloride]
- selectivity index [SI vs. THP-1], L. donovani [1]: 1.1

- IC50 (TcTryS): 40 ± 1.2 µM
Structure (SMILES): C[n+]1cc2c3c(ccc2c2ccc4cc5c(cc4c21)OCO5)OCO3 [Compound 6, Sanguinarine chloride]
- selectivity index [SI vs. THP-1], L. donovani [1]: 2
- selectivity index [SI vs. THP-1], T. cruzi [3]: 9.5
- selectivity index [SI vs. U-2 OS], T. cruzi [3]: 1.3
- EC50 [3]: 0.37 ± 0.11 µM

- % TryS inhibition at 25 μM, T. cruzi (TcTryS): 12.9 ± 6.1%
- % TryS inhibition at 25 μM, L. infantum (LiTryS; listed as 46, 25 µM): 74%
Structure (SMILES): O=C1Cc2cc(-c3csc(NCCc4cccs4)n3)cc3c2N1CCC3 [Compound 22]

Structure (SMILES): Clc1ccc(C(c2ccc(Cl)cc2)n2cc[n+](CC(OCc3ccc(Cl)cc3Cl)c3ccc(Cl)cc3Cl)c2)cc1 (stereo not shown) [Compound 7, Calmidazolium chloride]
- IC50 (TcTryS): 2.7 ± 0.5 µM
- selectivity index [SI vs. U-2 OS], T. cruzi [3]: 1.1
- EC50 [3]: 1.6 ± 0.1 µM
- effect on parasites at 2× EC50 in redox assay ([7]; 2× EC50, 4 h): massive cell death

- % TryS inhibition at 25 μM, L. infantum (LiTryS): 28.5 ± 11.1%
Structure (SMILES): Cc1nc(C(=O)N2CCCC2c2ccc(F)c(F)c2)c(=O)[nH]c1C (stereo not shown) [Compound 18]
